Experimental findings from patent US9657014B2, “Substituted 1,6-naphthyridines” (Hoffmann-La Roche Inc., priority 2012, dated 2017) are described below.

The first assay relates to human embryonic stem cell derived neural stem cells (NSCs). The experiment in a line: Neural stem cell proliferation assay (neurogenesis assay). The class given is cell-based. The following applies: Homo sapiens, Neural stem cell, 96 h; Table 1, novel compounds; concentration at which 150% activity of control (100%) is reached; ATP levels (CellTiterGlo) after 4 days incubation. The method in brief: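 NSCs derived from human ES cells by dual SMAD inhibition, seeded on polyornithin/laminin, dosed 4 h later (11 points, 8 μM to 8 nM). After 4 days at 37° C, ATP luminescence read; response = compound/medium control ×100, EC150 = concentration giving 150% of control.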
(In ATP-based viability assays light output follows the ATP content of the culture.)
`NC(=O)c1ccc2cncc(N3CCOCC3)c2n1` [Example 142, 8-Morpholino-1,6-naphthyridine-2-carboxamide]: the EC (150% of control) is 0.94 µM.

In the case of `CN(C(=O)c1ccc2cncc(-c3ccc(Cl)cc3)c2n1)C1CC1` [Example 97, 8-(4-Chlorophenyl)-N-cyclopropyl-N-methyl-1,6-naphthyridine-2-carboxamide], the EC (150% of control) is 0.26 µM.

With `O=C(Nc1ccccc1)c1ccc2cncc(-c3ccc(Cl)cc3)c2n1` [Example 53, 8-(4-Chlorophenyl)-N-phenyl-1,6-naphthyridine-2-carboxamide], the EC (150% of control) turned out to be 0.23 µM.

The compound `CS(=O)(=O)CCNC(=O)c1ccc2cncc(-c3ccc(F)cc3F)c2n1` [Example 129, 8-(2,4-Difluorophenyl)-N-(2-(methylsulfonyl)ethyl)-1,6-naphthyridine-2-carboxamide] came in with an EC (150% of control) of 0.06 µM.

On to `Cn1nccc1-c1cncc2ccc(C(N)=O)nc12` [Example 99, 8-(1-Methyl-1H-pyrazol-5-yl)-1,6-naphthyridine-2-carboxamide], for which the EC (150% of control) turned out to be 2.2 µM.

On to `O=C(NCCCn1ccnc1)c1ccc2cncc(-c3ccc(Cl)cc3)c2n1` [Example 37, N-(3-(1H-Imidazol-1-yl)propyl)-8-(4-chlorophenyl)-1,6-naphthyridine-2-carboxamide], for which the EC (150% of control) was 0.12 µM.

Compound `N#CC1(NC(=O)c2ccc3cncc(-c4ccc(Cl)cc4)c3n2)CC1` [Example 76, 8-(4-Chlorophenyl)-N-(1-cyanocyclopropyl)-1,6-naphthyridine-2-carboxamide] yielded an EC (150% of control) of 1.84 µM.

Take `COc1ccccc1-c1cncc2ccc(C(=O)NCc3ccncc3)nc12` [Example 27, 8-(2-Methoxyphenyl)-N-(pyridin-4-ylmethyl)-1,6-naphthyridine-2-carboxamide]: the EC (150% of control) was 0.56 µM.

With `CC(NC(=O)c1ccc2cncc(-c3ccc(F)c(F)c3)c2n1)c1ccc(S(C)(=O)=O)cc1` (stereo not shown) [Example 111, 8-(3,4-Difluorophenyl)-N-(1-(4-(methylsulfonyl)phenyl)ethyl)-1,6-naphthyridine-2-carboxamide], the EC (150% of control) worked out at 0.3 µM.

In turn, `Cc1ccccc1-c1cncc2ccc(C(N)=O)nc12` [Example 82, 8-o-Tolyl-1,6-naphthyridine-2-carboxamide] returned an EC (150% of control) of 2.05 µM.

Consider `COc1ccc(-c2cncc3ccc(C(=O)NCc4cccnc4)nc23)cc1` [Example 22, 8-(4-Methoxyphenyl)-N-(pyridin-3-ylmethyl)-1,6-naphthyridine-2-carboxamide], for which the EC (150% of control) was 0.03 µM.

The compound `NC(=O)c1ccc2cncc(-c3ccc4c(c3)OCCO4)c2n1` [Example 92, 8-(2,3-Dihydrobenzo[b][1,4]dioxin-6-yl)-1,6-naphthyridine-2-carboxamide] had an EC (150% of control) of 0.03 µM.

For the compound `NC(=O)c1ccc2cncc(-c3cc(F)c(F)c(F)c3)c2n1` [Example 84, 8-(3,4,5-Trifluorophenyl)-1,6-naphthyridine-2-carboxamide], the EC (150% of control) is 0.25 µM.

For `O=C(NCCO)c1ccc2cncc(-c3ccc(Cl)cc3)c2n1` [Example 158, 8-(4-Chlorophenyl)-N-(2-hydroxyethyl)-1,6-naphthyridine-2-carboxamide], the EC (150% of control) came to 0.09 µM.

On to `CC(NC(=O)c1ccc2cncc(-c3ccc(OCC(F)(F)F)cc3)c2n1)C(C)(C)O` (stereo not shown) [Example 163, N-(3-Hydroxy-3-methylbutan-2-yl)-8-(4-(2,2,2-trifluoroethoxyl)phenyl)-1,6-naphthyridine-2-carboxamide], for which the EC (150% of control) was found to be 0.07 µM.

Turning to `O=C(NCCO)c1ccc2cncc(-c3cccc(O)c3)c2n1` [Example 144, N-(2-Hydroxyethyl)-8-(3-hydroxyphenyl)-1,6-naphthyridine-2-carboxamide], the EC (150% of control) was found to be 0.16 µM.

In turn, `CC(C)NC(=O)c1ccc2cncc(-c3ccc(Cl)cc3)c2n1` [Example 70, 8-(4-Chlorophenyl)-N-isopropyl-1,6-naphthyridine-2-carboxamide] showed an EC (150% of control) of 0.6 µM.

The compound `CCCCCCNC(=O)c1ccc2cncc(-c3ccc(Cl)cc3)c2n1` [Example 145, 8-(4-Chlorophenyl)-N-hexyl-1,6-naphthyridine-2-carboxamide] registered an EC (150% of control) of 0.21 µM.

Compound `O=C(NCCC(F)(F)F)c1ccc2cncc(-c3ccc(Cl)cc3)c2n1` [Example 64, 8-(4-Chlorophenyl)-N-(3,3,3-trifluoropropyl)-1,6-naphthyridine-2-carboxamide] showed an EC (150% of control) of 0.15 µM.

On to `CC(NC(=O)c1ccc2cncc(-c3ccc(F)cc3)c2n1)c1ccc(S(C)(=O)=O)cc1` (stereo not shown) [Example 107, 8-(4-Fluorophenyl)-N-(1-(4-(methylsulfonyl)phenyl)ethyl)-1,6-naphthyridine-2-carboxamide], for which the EC (150% of control) came out at 0.1 µM.

As to `COCCN(Cc1ccccc1)C(=O)c1ccc2cncc(-c3ccc(OC)cc3)c2n1` [Example 34, N-Benzyl-N-(2-methoxyethyl)-8-(4-methoxyphenyl)-1,6-naphthyridine-2-carboxamide], the EC (150% of control) turned out to be 0.21 µM.

`Cc1cnc(CNC(=O)c2ccc3cncc(-c4ccc(Cl)cc4)c3n2)cn1` [Example 48, 8-(4-Chlorophenyl)-N-((5-methylpyrazin-2-yl)methyl)-1,6-naphthyridine-2-carboxamide]: the EC (150% of control) worked out at 0.88 µM.

In turn, `O=C(c1ccc2cncc(-c3ccc(Cl)cc3)c2n1)N1CCCCC1` [Example 56, (8-(4-Chlorophenyl)-1,6-naphthyridin-2-yl)(piperidin-1-yl)methanone] gave an EC (150% of control) of 1.51 µM.

Consider `CC(NC(=O)c1ccc2cncc(-c3ccc(Cl)cc3)c2n1)C(C)(C)O` (stereo not shown) [Example 162, 8-(4-Chlorophenyl)-N-(3-hydroxy-3-methylbutan-2-yl)-1,6-naphthyridine-2-carboxamide], for which the EC (150% of control) came to 0.06 µM.

Turning to `CN(C)S(=O)(=O)c1ccc(-c2cncc3ccc(C(N)=O)nc23)cc1` [Example 106, 8-(4-(N,N-Dimethylsulfamoyl)phenyl)-1,6-naphthyridine-2-carboxamide], the EC (150% of control) came out at 0.19 µM.

The compound `O=C(NCC(F)(F)F)c1ccc2cncc(-c3ccccc3F)c2n1` [Example 125, 8-(2-Fluorophenyl)-N-(2,2,2-trifluoroethyl)-1,6-naphthyridine-2-carboxamide] came in with an EC (150% of control) of 0.04 µM.

As for `NC(=O)c1ccc2cncc(-c3ccc(OC(F)(F)F)cc3)c2n1` [Example 95, 8-(4-(Trifluoromethoxy)phenyl)-1,6-naphthyridine-2-carboxamide], the EC (150% of control) amounted to 0.05 µM.

On to `COCCNC(=O)c1ccc2cncc(-c3ccccc3Cl)c2n1` [Example 8, 8-(2-Chlorophenyl)-N-(2-methoxyethyl)-1,6-naphthyridine-2-carboxamide], for which the EC (150% of control) came to 0.33 µM.

With `COc1cccc(-c2cncc3ccc(C(=O)NCc4ccccc4)nc23)c1` [Example 11, N-Benzyl-8-(3-methoxyphenyl)-1,6-naphthyridine-2-carboxamide], the EC (150% of control) was 0.03 µM.

`COCCNC(=O)c1ccc2cncc(-c3cccnc3)c2n1` [Example 19, N-(2-methoxyethyl)-8-(pyridin-3-yl)-1,6-naphthyridine-2-carboxamide]: the EC (150% of control) worked out at 0.49 µM.

`Cc1cc2cncc(-c3ccc(C(F)(F)F)cc3)c2nc1C(N)=O` [Example 157, 3-Methyl-8-[4-(trifluoromethyl)phenyl]-1,6-naphthyridine-2-carboxamide] registered an EC (150% of control) of 0.88 µM.

In turn, `COCCNC(=O)c1ccc2cncc(-c3ccc(OC)cc3)c2n1` [Example 2, N-(2-Methoxyethyl)-8-(4-methoxyphenyl)-1,6-naphthyridine-2-carboxamide] registered an EC (150% of control) of 0.03 µM.

Compound `NC(=O)c1ccc2cncc(C3=CCOCC3)c2n1` [Example 146, 8-(3,6-Dihydro-2H-pyran-4-yl)-1,6-naphthyridine-2-carboxamide] gave an EC (150% of control) of 0.21 µM.

`O=C(NCCCn1ccnc1)c1ccc2cncc(C3=CCOCC3)c2n1` [Example 43, N-(3-(1H-Imidazol-1-yl)propyl)-8-(3,6-dihydro-2H-pyran-4-yl)-1,6-naphthyridine-2-carboxamide] came in with an EC (150% of control) of 2.68 µM.

Staying with this assay, now noted: Homo sapiens, Neural stem cell, 96 h; Table 2, known compounds; concentration at which 150% activity of control (100%) is reached; ATP levels (CellTiterGlo) after 4 days incubation.
`O=C(NCCCN1CCOCC1)c1ccc2cncc(-c3ccccc3)c2n1` [Example 188, 8-Phenyl-[1,6]naphthyridine-2-carboxylic acid (3-morpholin-4-yl-propyl)-amide] came in with an EC (150% of control) of 6.8 µM.

Consider `O=C(NCc1ccccc1)c1ccc2cncc(-c3ccsc3)c2n1` [Example 199, 8-Thiophen-3-yl-[1,6]naphthyridine-2-carboxylic acid benzylamide], for which the EC (150% of control) was 0.1 µM.

Turning to `COc1ccc(-c2cncc3ccc(C(=O)NCCCn4ccnc4)nc23)cc1` [Example 179, 8-(4-Methoxy-phenyl)-[1,6]naphthyridine-2-carboxylic acid (3-imidazol-1-yl-propyl)-amide], the EC (150% of control) was determined as 0.7 µM.

In the case of `O=C(NCc1ccccc1)c1ccc2cncc(-c3ccccc3)c2n1` [Example 191, 8-Phenyl-[1,6]naphthyridine-2-carboxylic acid benzylamide], the EC (150% of control) was 0.44 µM.

In turn, `CS(=O)(=O)c1ccc(CNC(=O)c2ccc3cncc(-c4ccccc4)c3n2)cc1` [Example 195, 8-Phenyl-[1,6]naphthyridine-2-carboxylic acid 4-methanesulfonyl-benzylamide] registered an EC (150% of control) of 4 µM.

The same assay, now with this note: Table 1, novel compounds; concentration at which 150% activity of control (100%) is reached; ATP levels (CellTiterGlo) after 4 days incubation.
With `CC1(CNC(=O)c2ccc3cncc(-c4ccc(Cl)cc4)c3n2)CCC(=O)N1` (stereo not shown) [Example 141, 8-(4-Chlorophenyl)-N-((2-methyl-5-oxopyrrolidin-2-yl)methyl)-1,6-naphthyridine-2-carboxamide], the “EC150” value was determined as 0.01 µM.
